Reference: patent US5674988A, “4-N-substituted sialic acids and their sialosides” (E. I. Du Pont de Nemours and Company, priority 1996, dated 1997)
Structures can show the parent of a compound that is named as a salt.

Molecular target: influenza A neuraminidase
Assay: Radiolabeled-substrate neuraminidase inhibition assay (hydrolysis of 14C-labeled αDNeuAc(2-6)βDGal(1-4)DGlcNAc, A)
Format: biochemical, influenza A virus
Settings: substrate A at 1.0-8.0 mM; inhibitor 0.07, 0.14, 0.28 mM; 100 mM NaOAc-5 mM Na2HPO4 pH 5.5; 37° C.; from Lineweaver-Burk plots; read-out: inhibition constant Ki
Protocol: In order to determine the effectiveness of the instant thiosialosides as neuraminidase inhibitors, incubations were performed involving the neuraminidase, the thiosialoside inhibitor and a ^14 C-labeled substrate, ^14 C-labeled αDNeuAc (2-6) βDGal (1-4) DGlcNAc (A).
Inhibition constants of the inhibitors were determined by incubating (37° C.) a solution of A at four different concentrations with the neuraminidase, in the presence or absence of the inhibitors. After the reaction, the reaction mixture was diluted with deionized water and passed through a column of Dowex resin. The column was further eluted with deionized water. Under these conditions, only the free LacNAc elutes. The eluant was diluted with Scintillation fluid (10 mL, Formula 989, NEN, MA) and the radioactivity was measured, and the amount of free LacNAc liberated was determined.
The activity of neuraminidase was measured with a radiolabeled substrate. […]
The neuraminidase concentration was 53 ug of influenza A virus in 60 uL of total reaction volume. […] The eluant was diluted with Scintillation fluid (10 mL), Formula 989, NEN, MA) and the radioactivity was measured for 2 or 5 min with a Liquid Scintillation counter. From the Lineweaver-Burk plots for the hydrolysis of A the inhibition constant Ki was calculated according to methods known in the art.

| Compound | Ki [µM] |
| --- | --- |
| CC(=O)N[C@H]1[C@H]([C@H](O)[C@H](O)CO)O[C@@](S[C@H](C)[C@H]2OC(O)[C@H](O)[C@@H](O)[C@H]2O)(C(=O)O)C[C@@H]1N (stereo partly drawn) [Compound 14, Sodium Salt of 5-acetamido-4-amino-2-thio-3,4,5-trideoxy-D-glycero-D-galacto-nonulopyranosylonic acid(2-S-6)-7-deoxy-α,β-D-glycero-D-galacto-heptopyranose] | 51 |
| CC(=O)NC1C(N)CC(OCC2OC(O)C(O)C(O)C2O)(C(=O)O)OC1C(O)C(O)CO [Compound 12, Sodium Salt of 5-acetamido-4-amino-3,4,5-trideoxy-D-glycero-D-galacto-nonulopyranosylonicacid (2-6)-α-D-galacto-pyranose] | 100 |
